Active and inactive are the calls of the source.

One assay deals with T1, Hexokinase HKDC1 (Homo sapiens, UniProt Q2TB90).
T1 sequence (Q2TB90 whole entry): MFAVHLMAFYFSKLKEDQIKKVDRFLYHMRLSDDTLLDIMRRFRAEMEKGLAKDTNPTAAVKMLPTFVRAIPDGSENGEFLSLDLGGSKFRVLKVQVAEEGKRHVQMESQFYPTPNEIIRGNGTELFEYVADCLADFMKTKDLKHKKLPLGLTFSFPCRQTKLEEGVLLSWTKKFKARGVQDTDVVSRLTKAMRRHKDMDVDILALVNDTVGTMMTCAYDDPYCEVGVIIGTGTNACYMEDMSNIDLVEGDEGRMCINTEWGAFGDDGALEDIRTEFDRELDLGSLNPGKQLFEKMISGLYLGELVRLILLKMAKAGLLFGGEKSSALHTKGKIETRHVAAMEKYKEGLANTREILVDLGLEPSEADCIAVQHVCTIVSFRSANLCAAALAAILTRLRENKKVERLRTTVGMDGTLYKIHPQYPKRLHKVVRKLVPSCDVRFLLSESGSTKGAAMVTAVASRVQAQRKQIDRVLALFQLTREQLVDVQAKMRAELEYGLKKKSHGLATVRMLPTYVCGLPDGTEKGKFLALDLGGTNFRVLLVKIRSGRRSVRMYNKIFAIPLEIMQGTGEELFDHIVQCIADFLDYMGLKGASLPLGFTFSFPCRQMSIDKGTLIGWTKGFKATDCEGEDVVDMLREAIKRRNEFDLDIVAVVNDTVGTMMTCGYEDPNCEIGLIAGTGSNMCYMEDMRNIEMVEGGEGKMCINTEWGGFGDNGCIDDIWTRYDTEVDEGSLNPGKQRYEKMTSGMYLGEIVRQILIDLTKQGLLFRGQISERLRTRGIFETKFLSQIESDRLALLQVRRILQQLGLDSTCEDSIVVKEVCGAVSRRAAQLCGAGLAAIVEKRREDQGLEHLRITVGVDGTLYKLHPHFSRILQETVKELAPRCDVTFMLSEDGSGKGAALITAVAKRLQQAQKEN
Nature of the assay: HKDC1 hexokinase inhibitors, SAR follow-up, biochemical, set 2 (AID 588355). Type of assay: functional.

A further assay addresses T2, Hexokinase-1 (Homo sapiens, UniProt P19367).
T2 sequence (P19367 whole entry): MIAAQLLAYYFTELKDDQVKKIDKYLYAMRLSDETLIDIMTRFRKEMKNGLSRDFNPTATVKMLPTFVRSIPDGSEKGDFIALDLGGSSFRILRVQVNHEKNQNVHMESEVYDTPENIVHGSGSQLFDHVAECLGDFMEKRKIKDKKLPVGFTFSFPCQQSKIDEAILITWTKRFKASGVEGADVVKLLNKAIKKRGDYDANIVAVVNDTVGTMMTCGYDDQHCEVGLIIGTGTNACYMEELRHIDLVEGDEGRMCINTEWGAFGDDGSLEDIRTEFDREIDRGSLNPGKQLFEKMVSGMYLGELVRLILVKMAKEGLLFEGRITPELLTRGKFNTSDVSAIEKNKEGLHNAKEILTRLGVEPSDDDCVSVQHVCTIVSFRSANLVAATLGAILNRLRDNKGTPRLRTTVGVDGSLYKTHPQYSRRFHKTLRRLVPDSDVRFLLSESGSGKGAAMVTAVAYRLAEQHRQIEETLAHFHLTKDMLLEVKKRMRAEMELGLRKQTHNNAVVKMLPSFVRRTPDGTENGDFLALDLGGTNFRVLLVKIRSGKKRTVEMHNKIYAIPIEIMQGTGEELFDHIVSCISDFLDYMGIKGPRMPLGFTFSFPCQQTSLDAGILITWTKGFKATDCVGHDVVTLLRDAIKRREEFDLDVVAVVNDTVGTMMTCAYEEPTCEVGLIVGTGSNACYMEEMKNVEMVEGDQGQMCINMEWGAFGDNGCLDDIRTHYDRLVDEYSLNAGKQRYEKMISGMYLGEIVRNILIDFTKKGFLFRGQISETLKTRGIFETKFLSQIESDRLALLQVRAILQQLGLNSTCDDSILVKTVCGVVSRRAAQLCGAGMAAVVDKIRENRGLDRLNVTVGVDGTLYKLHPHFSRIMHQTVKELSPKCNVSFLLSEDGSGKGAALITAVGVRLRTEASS
The experiment in a line: HK1 enzyme inhibition by HKDC1 hits, SAR follow-up, selectivity assay for HKDC1 inhibitor project, biochemical, set 2, resazurin fluorescence coupled readout (AID 588356). Type of assay: functional.

In assay [1] the test system is HEK293. The experiment in a line: cytotoxicity in HEK293T NF-kB-Luc cells, SAR follow-up, cytotoxicity control for NF-kB activator project, cell-based, resazurin fluorescence (AID 493251). The conditions noted are these: Homo sapiens. Type of assay: functional.
Assay [2] concerns Jurkat. Nature of the assay: SAR Analysis of small molecule inhibitors of […] specific antigen receptor-induced NF-kB activation in a Jurkat cell line using a luminescence assay - Set 3. [Related pubchem assays (depositor defined):AID435022, AID435025, AID465]. Format: functional, cell-based. The conditions noted are these: Homo sapiens.
Assay [3] concerns HEK293. The experiment in a line: SAR Analysis of small molecule inhibitors of B-cell specific antigen receptor-induced NF-kB activation in a HEK-293T cell line using a luminescence assay - Set 2. [Related pubchem assays (depositor defined):AID435022, AID435025, AID489021]. Format: functional, cell-based. The conditions noted are these: Homo sapiens.
The target in assay [4] is Dual specificity protein phosphatase 3 (Homo sapiens, UniProt P51452). The experiment in a line: SAR VHR1 Fluorescent Assay for In Vitro dose response studies Set 3. [Related pubchem assays (depositor defined):AID1654, AID1661, AID1878]. Format: functional.
Dual specificity protein phosphatase 3, sequence (P51452 whole entry): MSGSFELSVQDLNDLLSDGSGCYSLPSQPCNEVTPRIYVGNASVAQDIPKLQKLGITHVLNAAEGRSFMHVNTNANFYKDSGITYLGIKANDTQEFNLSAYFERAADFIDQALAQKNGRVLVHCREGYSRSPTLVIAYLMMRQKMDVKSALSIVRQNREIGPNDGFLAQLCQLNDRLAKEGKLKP
Assay [5] has as its system HEK293. Nature of the assay: SAR Analysis of small molecule inhibitors of T-cell specific antigen receptor-induced NF-kB activation in a HEK-293T cell line using a luminescence assay - Set 2. [Related pubchem assays (depositor defined):AID435003, AID435012, AID489026]. Format: functional, cell-based. The conditions noted are these: Homo sapiens.
Assay [6] relates to Jurkat. Nature of the assay: SAR Analysis of small molecule inhibitors of T-cell specific antigen receptor-induced NF-kB activation in a Jurkat cell line using a luminescence assay - Set 2. [Related pubchem assays (depositor defined):AID435003, AID435012, AID465]. The conditions noted are these: Homo sapiens. Format: functional, cell-based.
Assay [7] concerns the target Beta-adrenergic receptor kinase 1 (Homo sapiens, UniProt P25098). Nature of the assay: GRK2 inhibitors displacing RNA aptamer, dose response, biochemical, flow cytometry beads, FAM-aptamer, powder set 1 (AID 588720).
Assay [8] deals with Photoreceptor-specific nuclear receptor (Homo sapiens, UniProt Q9Y5X4). Nature of the assay: NR2E3 inverse agonists, dose response, biochemical, TR-FRET (AID 463256). Format: functional.
Photoreceptor-specific nuclear receptor, sequence (Q9Y5X4 whole entry): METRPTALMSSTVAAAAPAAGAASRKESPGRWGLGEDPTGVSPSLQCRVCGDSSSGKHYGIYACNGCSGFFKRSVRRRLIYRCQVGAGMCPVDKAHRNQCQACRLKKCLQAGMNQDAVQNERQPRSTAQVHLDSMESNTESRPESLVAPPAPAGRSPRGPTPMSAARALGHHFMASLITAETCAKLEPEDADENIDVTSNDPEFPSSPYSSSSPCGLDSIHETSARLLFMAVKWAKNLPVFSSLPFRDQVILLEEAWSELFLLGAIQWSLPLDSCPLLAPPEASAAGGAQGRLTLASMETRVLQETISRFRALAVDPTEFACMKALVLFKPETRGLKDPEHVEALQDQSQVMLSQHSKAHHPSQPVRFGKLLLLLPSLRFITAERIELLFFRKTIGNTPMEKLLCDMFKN
Assay [9] has as its target Peroxisome proliferator-activated receptor gamma/Nuclear receptor corepressor 2 (Homo sapiens, UniProt P37231+Q9Y618). Nature of the assay: Counterscreen for NR2E3 inverse agonists: TR-FRET-based biochemical high throughput dose response assay to identify inverse agonists of the interaction between peroxisome proliferator-activated receptor gamma (PPARg) and nuclear receptor co-repressor 2 (NCOR2). Format: functional.

Assay [10] has as its target T3, Small ubiquitin-related modifier 1 (Homo sapiens, UniProt P63165). Nature of the assay: inhibitors of SUMO1 partner interactions, dose response, biochemical, FRET (AID 624383). Type of assay: functional. The conditions noted are these: read-out: IC50_Mean.
Assay [11] has as its target T3, Small ubiquitin-related modifier 1. Nature of the assay: inhibitors of SUMO1 peptide binding, dose response, biochemical, fluorescence polarization, uHTS hits (AID 624382). The conditions noted are these: read-out: IC50_Mean. Type of assay: functional.
The subject of another assay is Streptococcus. Nature of the assay: Group A Streptococcus viability loss, dose response, counter-screen for streptokinase expression inhibitor project, luminescence, BacTiterGlo (AID 1915).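 Also: potency for reduction of bacterial viability or growth.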 Type of assay: functional, organism-based.
Assay [12] in a line: inhibitors of intracellular T. cruzi replication, confirmation, NIH3T3 host cells, beta-gal luminescence (AID 2044).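 Also: intracellular parasites grown in NIH/3T3 mouse fibroblasts as host cells; luminescent beta-galactosidase reporter signal from transgenic T. cruzi replicating inside host cells; inhibitors lower the luminescence signal.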 Type of assay: functional, cell-based.
A short description of assay [13]: cytotoxicity toward NIH3T3 fibroblasts, dose response, counter-screen, cell-based, ATP luminescence, mouse fibroblasts (AID 2010).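 Also: cells exposed to compound for about 90 hours before reading.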 Type of assay: functional.
The subject of assay [14] is A-375. Nature of the assay: A375 melanoma cell viability reduction, dose response, counter-screen for MITF modulator project, cherry-pick samples, set 2 (AID 540335). Type of assay: functional, cell-based. The conditions noted are these: Homo sapiens.
The target of a further assay is T4, Streptokinase A (Streptococcus pyogenes serotype M1, UniProt P10520).
T4 sequence (P10520 whole entry): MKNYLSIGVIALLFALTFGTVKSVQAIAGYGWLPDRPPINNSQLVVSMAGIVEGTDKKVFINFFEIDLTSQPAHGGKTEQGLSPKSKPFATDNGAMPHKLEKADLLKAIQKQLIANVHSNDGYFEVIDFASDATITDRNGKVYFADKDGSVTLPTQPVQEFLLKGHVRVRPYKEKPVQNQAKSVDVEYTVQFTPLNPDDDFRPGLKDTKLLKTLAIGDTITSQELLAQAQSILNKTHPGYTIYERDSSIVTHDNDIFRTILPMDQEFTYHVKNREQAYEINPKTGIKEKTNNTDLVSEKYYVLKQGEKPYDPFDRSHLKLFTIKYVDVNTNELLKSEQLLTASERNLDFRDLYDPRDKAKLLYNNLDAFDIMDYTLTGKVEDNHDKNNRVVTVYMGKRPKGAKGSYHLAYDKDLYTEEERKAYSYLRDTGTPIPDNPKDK
The experiment in a line: S. pyogenes streptokinase expression inhibitors, potency, dose response, plasminogen activation absorbance, OD405 (AID 1914).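 Also: secreted streptokinase activity via plasminogen activation per viability signal from cell pellet.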 Format: functional, Streptococcus pyogenes M1 GAS.

Assay [15] can be described thus: Luminescence Cell-Based Dose Retest to Confirm Inhibitors of Cancer Stem Cells. [Related pubchem assays (depositor defined):AID2717, AID2721]. Format: functional. The conditions noted are these: Homo sapiens.
Assay [16] concerns A-375. The experiment in a line: MITF: Counter assay: A375 proliferation Measured in Cell-Based System Using Plate Reader - 2084-03_Inhibitor_Dose_DryPowder_Activity. [Related pubchem assays (depositor defined):AID488944]. The conditions noted are these: Homo sapiens. Format: functional.
The target of assay [17] is T5, Microphthalmia-associated transcription factor (Homo sapiens, UniProt O75030).
T5 sequence (O75030 whole entry): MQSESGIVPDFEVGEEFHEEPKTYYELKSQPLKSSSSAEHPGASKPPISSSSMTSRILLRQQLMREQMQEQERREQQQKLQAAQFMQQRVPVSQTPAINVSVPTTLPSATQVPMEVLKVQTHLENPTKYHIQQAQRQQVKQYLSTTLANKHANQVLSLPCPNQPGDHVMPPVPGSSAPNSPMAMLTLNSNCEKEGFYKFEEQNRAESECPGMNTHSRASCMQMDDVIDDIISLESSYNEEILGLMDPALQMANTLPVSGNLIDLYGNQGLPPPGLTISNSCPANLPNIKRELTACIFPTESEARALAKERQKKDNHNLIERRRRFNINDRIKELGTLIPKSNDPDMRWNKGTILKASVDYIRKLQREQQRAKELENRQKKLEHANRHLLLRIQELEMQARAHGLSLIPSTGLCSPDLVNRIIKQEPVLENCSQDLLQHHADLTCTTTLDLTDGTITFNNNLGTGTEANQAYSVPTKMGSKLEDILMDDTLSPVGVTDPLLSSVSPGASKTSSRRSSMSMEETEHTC
Nature of the assay: TRPM1 promoter luciferase signal decrease, dose response, MITF inhibitor project, cell-based, SK-MEL-5, cherry-picked, set 3 (AID 493073).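 Also: SK-MEL-5 melanoma cells with luciferase driven by the MITF target TRPM1 promoter.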 Type of assay: functional.

The test system of assay [18] is Streptococcus sp. 'group A'. The experiment in a line: growth inhibition of control SK(-) GAS strain, dose response, counter-screen for streptokinase expression inhibitor project, luminescence, kanamycin, BacTiterGlo, confirmation (AID 1900). Type of assay: functional, organism-based.

T3 sequence (P63165 whole entry): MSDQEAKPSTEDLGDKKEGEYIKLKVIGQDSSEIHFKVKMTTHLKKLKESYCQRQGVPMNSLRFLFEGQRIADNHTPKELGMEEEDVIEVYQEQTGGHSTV
Peroxisome proliferator-activated receptor gamma/Nuclear receptor corepressor 2, sequence (P37231 whole entry): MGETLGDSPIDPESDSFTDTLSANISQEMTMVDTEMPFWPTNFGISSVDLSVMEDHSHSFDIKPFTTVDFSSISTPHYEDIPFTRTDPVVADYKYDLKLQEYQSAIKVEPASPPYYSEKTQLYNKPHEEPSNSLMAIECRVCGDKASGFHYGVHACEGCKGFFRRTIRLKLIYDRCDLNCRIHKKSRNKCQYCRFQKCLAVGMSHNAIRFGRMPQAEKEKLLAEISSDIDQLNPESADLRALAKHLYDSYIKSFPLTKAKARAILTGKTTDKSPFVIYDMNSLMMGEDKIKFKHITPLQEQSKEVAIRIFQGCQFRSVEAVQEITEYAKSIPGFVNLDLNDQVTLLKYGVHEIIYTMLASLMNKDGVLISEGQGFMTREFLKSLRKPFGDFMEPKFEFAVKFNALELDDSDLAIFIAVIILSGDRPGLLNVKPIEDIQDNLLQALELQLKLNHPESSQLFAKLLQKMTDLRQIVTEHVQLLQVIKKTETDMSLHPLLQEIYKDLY
Peroxisome proliferator-activated receptor gamma/Nuclear receptor corepressor 2, sequence (Q9Y618 whole entry): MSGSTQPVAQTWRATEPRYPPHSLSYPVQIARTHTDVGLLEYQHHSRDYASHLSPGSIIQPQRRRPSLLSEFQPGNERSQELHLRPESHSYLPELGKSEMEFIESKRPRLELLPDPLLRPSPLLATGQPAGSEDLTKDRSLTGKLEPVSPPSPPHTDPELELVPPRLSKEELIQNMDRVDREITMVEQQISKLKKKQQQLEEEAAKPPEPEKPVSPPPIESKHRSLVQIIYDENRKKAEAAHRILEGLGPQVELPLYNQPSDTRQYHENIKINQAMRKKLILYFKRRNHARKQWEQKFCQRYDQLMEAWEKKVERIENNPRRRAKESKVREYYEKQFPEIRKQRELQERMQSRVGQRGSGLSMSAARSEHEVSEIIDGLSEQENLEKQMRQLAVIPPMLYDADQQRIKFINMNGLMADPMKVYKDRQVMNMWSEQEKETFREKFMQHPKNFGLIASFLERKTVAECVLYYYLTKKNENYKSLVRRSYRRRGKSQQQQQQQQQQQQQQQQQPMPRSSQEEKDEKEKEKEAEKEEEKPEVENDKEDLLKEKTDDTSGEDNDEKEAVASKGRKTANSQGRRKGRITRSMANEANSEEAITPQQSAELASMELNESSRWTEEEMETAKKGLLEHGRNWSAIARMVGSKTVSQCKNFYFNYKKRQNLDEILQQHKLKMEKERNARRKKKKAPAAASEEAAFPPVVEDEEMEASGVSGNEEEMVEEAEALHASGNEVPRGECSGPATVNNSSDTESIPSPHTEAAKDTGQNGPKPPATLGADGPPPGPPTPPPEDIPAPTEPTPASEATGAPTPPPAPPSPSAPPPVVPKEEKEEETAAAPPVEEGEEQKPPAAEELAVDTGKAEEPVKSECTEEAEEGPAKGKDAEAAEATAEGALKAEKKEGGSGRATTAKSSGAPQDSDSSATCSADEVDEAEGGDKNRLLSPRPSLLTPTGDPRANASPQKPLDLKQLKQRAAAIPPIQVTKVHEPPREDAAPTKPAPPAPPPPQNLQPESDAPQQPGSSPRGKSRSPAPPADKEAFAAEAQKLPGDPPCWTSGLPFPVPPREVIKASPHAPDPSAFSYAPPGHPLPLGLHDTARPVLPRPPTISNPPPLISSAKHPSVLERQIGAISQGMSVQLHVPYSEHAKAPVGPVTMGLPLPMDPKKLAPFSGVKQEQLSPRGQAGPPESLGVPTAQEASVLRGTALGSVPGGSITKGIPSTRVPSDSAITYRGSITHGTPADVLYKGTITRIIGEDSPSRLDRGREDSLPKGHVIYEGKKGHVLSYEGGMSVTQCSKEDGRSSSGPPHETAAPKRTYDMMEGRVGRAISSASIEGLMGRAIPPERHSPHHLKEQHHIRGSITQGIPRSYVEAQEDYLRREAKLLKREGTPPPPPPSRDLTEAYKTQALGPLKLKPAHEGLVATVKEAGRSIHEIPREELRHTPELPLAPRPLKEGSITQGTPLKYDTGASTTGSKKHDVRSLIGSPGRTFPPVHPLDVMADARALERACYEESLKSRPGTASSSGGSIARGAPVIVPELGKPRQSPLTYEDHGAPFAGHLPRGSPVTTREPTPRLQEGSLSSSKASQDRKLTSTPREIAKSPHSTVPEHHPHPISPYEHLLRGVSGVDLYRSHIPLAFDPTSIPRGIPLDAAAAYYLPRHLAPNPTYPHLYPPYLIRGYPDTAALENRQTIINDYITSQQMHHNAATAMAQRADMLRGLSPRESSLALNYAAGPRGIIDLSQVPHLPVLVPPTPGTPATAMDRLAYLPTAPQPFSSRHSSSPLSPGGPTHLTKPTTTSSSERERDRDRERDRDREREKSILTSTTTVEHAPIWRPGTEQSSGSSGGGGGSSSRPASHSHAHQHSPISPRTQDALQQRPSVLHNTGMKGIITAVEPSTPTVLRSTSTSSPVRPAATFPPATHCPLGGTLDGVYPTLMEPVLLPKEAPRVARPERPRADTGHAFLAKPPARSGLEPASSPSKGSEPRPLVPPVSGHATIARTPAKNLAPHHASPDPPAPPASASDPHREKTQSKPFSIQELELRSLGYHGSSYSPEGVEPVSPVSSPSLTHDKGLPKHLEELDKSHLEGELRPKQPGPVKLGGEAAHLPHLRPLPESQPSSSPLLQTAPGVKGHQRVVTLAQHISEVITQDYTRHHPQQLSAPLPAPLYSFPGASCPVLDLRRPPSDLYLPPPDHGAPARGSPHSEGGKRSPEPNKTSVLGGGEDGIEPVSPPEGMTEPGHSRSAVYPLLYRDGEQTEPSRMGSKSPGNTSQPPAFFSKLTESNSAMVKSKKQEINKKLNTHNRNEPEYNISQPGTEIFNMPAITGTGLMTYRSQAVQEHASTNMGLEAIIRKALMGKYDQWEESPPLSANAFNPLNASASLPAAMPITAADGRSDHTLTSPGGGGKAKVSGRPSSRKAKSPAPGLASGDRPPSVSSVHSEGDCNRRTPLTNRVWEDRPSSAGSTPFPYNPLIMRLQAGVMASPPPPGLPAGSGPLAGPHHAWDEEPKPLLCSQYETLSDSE
Beta-adrenergic receptor kinase 1, sequence (P25098 whole entry): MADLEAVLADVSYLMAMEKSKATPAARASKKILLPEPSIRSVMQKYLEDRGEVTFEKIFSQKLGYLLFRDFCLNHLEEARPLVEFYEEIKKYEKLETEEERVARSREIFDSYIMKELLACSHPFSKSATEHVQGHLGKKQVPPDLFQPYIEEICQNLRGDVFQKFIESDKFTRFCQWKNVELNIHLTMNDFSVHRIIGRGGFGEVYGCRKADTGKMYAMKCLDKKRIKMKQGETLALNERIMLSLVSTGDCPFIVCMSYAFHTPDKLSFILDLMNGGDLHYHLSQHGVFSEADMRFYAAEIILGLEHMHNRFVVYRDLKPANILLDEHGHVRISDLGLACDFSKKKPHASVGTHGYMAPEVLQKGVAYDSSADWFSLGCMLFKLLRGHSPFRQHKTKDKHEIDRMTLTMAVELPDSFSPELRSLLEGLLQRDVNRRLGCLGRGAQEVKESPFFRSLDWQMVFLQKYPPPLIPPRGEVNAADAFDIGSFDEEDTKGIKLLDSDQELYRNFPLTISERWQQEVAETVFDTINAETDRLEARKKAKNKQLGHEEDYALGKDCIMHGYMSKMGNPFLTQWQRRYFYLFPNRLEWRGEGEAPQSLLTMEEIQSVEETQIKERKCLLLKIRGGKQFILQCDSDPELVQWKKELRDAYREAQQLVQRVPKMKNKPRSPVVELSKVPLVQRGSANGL

Consider `O=c1c2cc(Cl)ccc2nc(/C=C/c2cccnc2)n1Cc1ccccc1`, for which the IC50 at Hexokinase HKDC1 and on Hexokinase-1 was > 80 µM (inactive) in each case.
Take `CNC(=O)CCc1nc(-c2ccc(OC)cc2)no1`: the IC50 in the assay with HEK293 [1], with Jurkat [2] and in the assay on HEK293 [3] was > 80 µM (inactive) in each case.
For `COc1ccc(C(=O)Nc2nc3c(OC)ccc(C)c3s2)cc1`, the IC50 in assay [4] was 48.7 µM (active).
`CC(C)c1ccc(C(NC(=O)C2CCCCC2)c2cc([N+](=O)[O-])c3cccnc3c2O)cc1` (stereo not drawn): the IC50 in the assay with HEK293 [5] is 11.6 µM (active); in the assay with HEK293 [1], 3.96 µM (active); with Jurkat [6], 76.4 µM (inactive).
`CCOc1ccc(NC(=O)CCS(=O)(=O)c2ccc(Br)cc2)cc1`: the EC50 in [7] was 0.277 µM (inactive). Also, the IC50 is 8.87 µM (active) in assay [8], 13.6 µM (not active) in [9], 12.8 µM (active) in assay [10] and > 66.6 µM (inactive) in [11].
As for `O=C(Nc1cccc(Cl)c1)Nc1cc(S(=O)(=O)N2CCCCC2)ccc1Cl`, the EC50 is 26.6 µM (active) with Streptococcus; 1.91 µM (active) in [12]; > 60 µM (not active) in [13]; 4.59 µM (active) on Streptokinase A; 11.8 µM (active) in assay [18]. Further, the AC50 with A-375 [14] was > 11 µM (active); in [15] it was 2.59 µM (active); in the assay on A-375 [16], > 11 µM (active); in assay [17], 12 µM (active).

Source of the values: ChEMBL document CHEMBL1201862, “PubChem BioAssay data set” (2004).
